# Assay results taken from US9732298B2, “Process for the treatment of liquefied hydrocarbon gas using 3-(amino) propane-1,2-diol compounds” (Dow Global Technologies LLC, priority 2012, dated 2017).
# Assays:
# [1] = pKa by automated Mettler Toledo titration; type: physicochemical; settings: aqueous amine solution; 50 weight % aqueous amine solutions titrated with 0.5 N hydrochloric acid
# [2] = Solubility of tested amine in heptane phase by gas chromatography (toluene internal standard); settings: GC peak area of tested amine in neat heptane phase; heptane 10 g, toluene 0.1 g, amine 2.5 g, mixed at 20° C. for 1 hour, decanted 15 minutes; average of three injections
# Procedure: A solution of heptane (10 g), toluene (0.1 g) and the tested amine (2.5 g) are mixed at 20° C. for 1 hours. The mixture is decanted for 15 minutes and the neat heptane phase is analyzed by gas chromatography using toluene as internal standard. The injection is repeated three times and peak areas of tested amine are averaged.
pKa [1],area counts [2] [counts],Structure (SMILES)
8.5,290,CN(CCO)CC(O)CO (stereo not drawn) [HEMAPD]
9.7,176,CNCC(O)CO (stereo not drawn) [MAPD]
9.3,0,NCC(O)CO (stereo not drawn) [APD]
